Results reported in ChEMBL document CHEMBL1201862, “PubChem BioAssay data set” (2004).
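All cell lines were grown in 96-well plates and treated with compound for 48 hours. The concentration for 50% growth inhibition is given as GI50.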 Activity calls are given as the source filed them. Cut-off read from the data, not from the text of the source: active = GI50 up to about 1.1 µM and inactive = higher.

Assays:
Experiment in all cases: NCI tumour cell line growth inhibition, 48 h
[1] = system: ACHN
[2] = system: CAKI-1
[3] = system: COLO 205
[4] = system: DU-145
[5] = system: HL-60
[6] = system: HT-29
[7] = system: IGROV-1
[8] = system: K562
[9] = system: KM12
[10] = system: MDA-MB-435
[11] = system: MDA-N
[12] = system: MOLT-4
[13] = system: NCI-H226
[14] = system: NCI-H23
[15] = system: NCI/ADR-RES
[16] = system: RPMI-8226
[17] = system: SK-MEL-2
[18] = system: SNB-19
[19] = system: UACC-257
[20] = system: UACC-62

| Compound | GI50 [1] | GI50 [2] | GI50 [3] | GI50 [4] | GI50 [5] | GI50 [6] | GI50 [7] | GI50 [8] | GI50 [9] | GI50 [10] | GI50 [11] | GI50 [12] | GI50 [13] | GI50 [14] | GI50 [15] | GI50 [16] | GI50 [17] | GI50 [18] | GI50 [19] | GI50 [20] |
| --- | --- | --- | --- | --- | --- | --- | --- | --- | --- | --- | --- | --- | --- | --- | --- | --- | --- | --- | --- | --- |
| O=C1NN=C(c2c[nH]c3ccccc23)CC1NCc1ccccc1 (stereo not given) | > 100 µM (inactive) | > 100 µM (inactive) | > 100 µM (inactive) | > 100 µM (inactive) | > 100 µM (inactive) | > 100 µM (inactive) | 1.01 µM (active) | > 100 µM (inactive) | > 100 µM (inactive) | > 100 µM (inactive) | > 100 µM (inactive) | > 100 µM (inactive) | > 100 µM (inactive) | > 100 µM (inactive) | > 100 µM (inactive) | > 100 µM (inactive) | > 100 µM (inactive) | > 100 µM (inactive) | > 100 µM (inactive) | > 100 µM (inactive) |
| CCOC(=O)c1nc2cc(N3CCOCC3)c(F)cc2[nH]c1=O | > 100 µM (inactive) | > 100 µM (inactive) | > 100 µM (inactive) | > 100 µM (inactive) | 19.8 µM (inactive) | 69.8 µM (inactive) | 39 µM (inactive) | > 100 µM (inactive) | > 100 µM (inactive) | > 100 µM (inactive) | > 100 µM (inactive) | > 100 µM (inactive) | 20.3 µM (inactive) | > 100 µM (inactive) | > 100 µM (inactive) | > 100 µM (inactive) | > 100 µM (inactive) | > 100 µM (inactive) | > 100 µM (inactive) | 92.9 µM (inactive) |
| Cc1[nH]n(-c2nc(-c3ccccc3)cc(=O)[nH]2)c(=O)c1CCO | > 100 µM (inactive) | > 100 µM (inactive) | > 100 µM (inactive) | > 100 µM (inactive) | > 100 µM (inactive) | > 100 µM (inactive) | > 100 µM (inactive) | > 100 µM (inactive) | > 100 µM (inactive) | > 100 µM (inactive) | > 100 µM (inactive) | 63.5 µM (inactive) | > 100 µM (inactive) | > 100 µM (inactive) | 71.1 µM (inactive) | > 100 µM (inactive) | > 100 µM (inactive) | > 100 µM (inactive) | > 100 µM (inactive) | > 100 µM (inactive) |
| c1ccc2c(c1)-c1ccccc1C2N1CC2CCC(CC2)C1 | 23 µM (inactive) | 32 µM (inactive) | 20.5 µM (inactive) | 29.9 µM (inactive) | 2.92 µM (inactive) | 16.8 µM (inactive) | 20.7 µM (inactive) | 17.3 µM (inactive) | 19 µM (inactive) | 25.1 µM (inactive) | 31.9 µM (inactive) | 12.3 µM (inactive) | 19.5 µM (inactive) | 17.3 µM (inactive) | 15.5 µM (inactive) | 20.4 µM (inactive) | 16 µM (inactive) | 29.4 µM (inactive) | 20.6 µM (inactive) | 19.9 µM (inactive) |
| OC(c1cc(C(O)(C(F)(F)F)C(F)(F)F)ncn1)(C(F)(F)F)C(F)(F)F | > 10 µM (inactive) | > 10 µM (inactive) | > 10 µM (inactive) | > 10 µM (inactive) | > 10 µM (inactive) | > 10 µM (inactive) | > 10 µM (inactive) | > 10 µM (inactive) | > 10 µM (inactive) | > 10 µM (inactive) | > 10 µM (inactive) | > 10 µM (inactive) | > 10 µM (inactive) | > 10 µM (inactive) | > 10 µM (inactive) | > 10 µM (inactive) | > 10 µM (inactive) | > 10 µM (inactive) | > 10 µM (inactive) | > 10 µM (inactive) |
| CCSc1nc(C)nc2c1sc1nc3ccccc3n12 | > 100 µM (inactive) | > 100 µM (inactive) | > 100 µM (inactive) | > 100 µM (inactive) | > 28.1 µM (inactive) | > 100 µM (inactive) | > 100 µM (inactive) | > 100 µM (inactive) | > 68.1 µM (inactive) | > 100 µM (inactive) | > 100 µM (inactive) | > 100 µM (inactive) | > 100 µM (inactive) | > 100 µM (inactive) | > 100 µM (inactive) | > 100 µM (inactive) | > 100 µM (inactive) | > 100 µM (inactive) | > 100 µM (inactive) | > 100 µM (inactive) |
| Oc1ccc(SCc2cc(O)ccc2O)cc1 | 13.7 µM (inactive) | 6.14 µM (inactive) | 19.2 µM (inactive) | 24.7 µM (inactive) | 2.85 µM (inactive) | 36 µM (inactive) | 10.1 µM (inactive) | 3.96 µM (inactive) | 17.5 µM (inactive) | 13.1 µM (inactive) | 14.4 µM (inactive) | 3.86 µM (inactive) | 9.42 µM (inactive) | 28.5 µM (inactive) | 14.4 µM (inactive) | 2.67 µM (inactive) | 14.9 µM (inactive) | 23.7 µM (inactive) | 13.9 µM (inactive) | 17.1 µM (inactive) |
| CC1OC(OC2C(O[C@@H]3C[C@@H]4CC[C@@H]5[C@H](CC[C@]6(C)[C@@H]7[C@H](C[C@@H]56)O[C@]5(CC[C@@H](C)CO5)[C@H]7C)[C@@]4(C)C[C@H]3O)OC(CO)C(OC3OC(CO)C(O)C(O)C3O)C2O)C(O)C(O)C1O (stereo not given in full) | 1.79 µM (inactive) | 1.78 µM (inactive) | 1.74 µM (inactive) | 2.08 µM (inactive) | 1.91 µM (inactive) | 1.53 µM (inactive) | 1.14 µM (inactive) | 5.92 µM (inactive) | 1.98 µM (inactive) | 1.78 µM (inactive) | 1.91 µM (inactive) | 1.96 µM (inactive) | 1.44 µM (inactive) | 2.03 µM (inactive) | 1.67 µM (inactive) | 3.17 µM (inactive) | 1.74 µM (inactive) | 1.79 µM (inactive) | 1.87 µM (inactive) | 1.92 µM (inactive) |
| O=C(O)CO[C@@]12C#C/C=C\C#C[C@@H]3N(C(=O)Oc4ccccc4)c4ccccc4[C@]14O[C@@]34CCC2 | 85.9 µM (inactive) | 38.7 µM (inactive) | 20 µM (inactive) | 43.3 µM (inactive) | 26.5 µM (inactive) | 45.4 µM (inactive) | 27.2 µM (inactive) | 23.7 µM (inactive) | 17.6 µM (inactive) | 1.53 µM (inactive) | 14.9 µM (inactive) | 28.8 µM (inactive) | 71.9 µM (inactive) | 53.5 µM (inactive) | 31.6 µM (inactive) | 31.6 µM (inactive) | 16.2 µM (inactive) | 37 µM (inactive) | 55.7 µM (inactive) | 11.5 µM (inactive) |
| C[C@@H]1[C@@H](C)C(c2ccccc2)O[Si]1(C(C)(C)C)C(C)(C)C (stereo not given in full) | 17.7 µM (inactive) | 17.1 µM (inactive) | 15.7 µM (inactive) | 17.6 µM (inactive) | > 10 µM (inactive) | 15.2 µM (inactive) | 16.7 µM (inactive) | 22.3 µM (inactive) | 16.3 µM (inactive) | 25.6 µM (inactive) | 22.5 µM (inactive) | 16 µM (inactive) | 18.1 µM (inactive) | 15.6 µM (inactive) | 18.1 µM (inactive) | 20.6 µM (inactive) | 15.8 µM (inactive) | 13.8 µM (inactive) | 17.1 µM (inactive) | 19.1 µM (inactive) |
| C/C1=C/C(=O)O[C@@H]2C[C@@H](CC[C@H](C)/C=C\C=C\CC1)O[C@@](O)([C@@H]1CSC(=O)N1)C2 [LATRUNCULIN A] | 0.313 µM (active) | 0.0741 µM (active) | 0.18 µM (active) | 2.77 µM (inactive) | 3.28 µM (inactive) | 0.417 µM (active) | 0.133 µM (active) | 3.34 µM (inactive) | > 10 µM (inactive) | 0.44 µM (active) | > 5.07 µM (inactive) | > 5.83 µM (inactive) | 0.272 µM (active) | 2.14 µM (inactive) | 3.01 µM (inactive) | > 10 µM (inactive) | 5.25 µM (inactive) | 0.611 µM (active) | 2.51 µM (inactive) | 0.348 µM (active) |
| O=P(O)(O)CN1CCNCCN(CP(=O)(O)O)CCN(CP(=O)(O)O)CCNCC1 | > 100 µM (inactive) | 22500 µM (inactive) | 44200 µM (inactive) | > 100 µM (inactive) | 1.73 µM (inactive) | 31.3 µM (inactive) | 65900 µM (inactive) | > 100 µM (inactive) | 55200 µM (inactive) | > 100 µM (inactive) | 26400 µM (inactive) | > 100 µM (inactive) | 9.48 µM (inactive) | > 100000 µM (inactive) | > 100 µM (inactive) | > 100 µM (inactive) | 99300 µM (inactive) | > 100 µM (inactive) | > 100 µM (inactive) | > 100 µM (inactive) |
| CCC(=O)/C=C/c1ccccc1 | 79.1 µM (inactive) | 56.1 µM (inactive) | > 100 µM (inactive) | > 100 µM (inactive) | 33.4 µM (inactive) | 43.7 µM (inactive) | 76.9 µM (inactive) | 25.6 µM (inactive) | 14.6 µM (inactive) | 33.8 µM (inactive) | 40.6 µM (inactive) | 26 µM (inactive) | > 100 µM (inactive) | 47.4 µM (inactive) | 47.6 µM (inactive) | 54.3 µM (inactive) | > 100 µM (inactive) | 44 µM (inactive) | 72.6 µM (inactive) | 37 µM (inactive) |
